Results on 23 molecules are retold here after paper PMC3976273, “Three Amino Acid Residues Bind Corn Odorants to McinOBP1 in the Polyembryonic Endoparasitoid of Macrocentrus cingulum Brischke” (PLoS ONE, 2014).

Positions count from the first letter of the chain named. Where “and” joins values, the source holds several entries; their conditions need not be identical. Equal entries are not always repeated. Entries after “also recorded” stand apart in the source; their conditions may differ. Where two headings read alike, the source gives them in different places. Some results are limits rather than exact numbers.

The target of assay [1] is T1, McinOBP1-wt (Macrocentrus cingulum, UniProt X2D9T4). The assay is described as follows: Competitive fluorescence binding assay, displacement of 1-NPN. The settings on record: for binding to McinOBP1-wt (in words): displacement of 1-NPN. As to the method: (§1) Fluorescence binding assays were recorded on Shimadzu fluorescence spectrophotometer (Shimadzu, Japan) with a 1 cm light path quartz cuvette; both excitation and emission silts widths were 5 nm. The probe was excited at 337 nm and emission spectra were recorded between 350 and 500 nm. […] For determining the bound ligand from the intensity values of fluorescence emission assuming that the proteins were 100% active, with a stoichiometry of 1∶1 (protein:ligand) at saturation. The GraphPad Prism 5 (GraphPad Software, Inc.) was used to estimate the K1–NPN (KD of protein complex/1-NPN) values by nonlinear regression for a unique site of binding. Scatchard plots were used to linearize the curves.

The target in assay [2] is T1, McinOBP1-wt. Kind of assay: Fluorescence binding of the probe 1-NPN (direct titration). The following applies: dissociation constant (KD) of 1-NPN, 2 μM protein, 50 mM Tris-HCl pH 7.4. How it is done: as §1
Assay [3] concerns the target T2, McinOBP1-m1 (Val58 to alanine) (Macrocentrus cingulum, UniProt X2D9T4, V58A).
T2 sequence (X2D9T4 21-140 V58A): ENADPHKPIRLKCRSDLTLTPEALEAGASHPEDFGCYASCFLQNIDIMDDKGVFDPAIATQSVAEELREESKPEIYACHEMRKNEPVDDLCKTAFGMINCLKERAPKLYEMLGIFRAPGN
The assay is described as above. The settings on record: 2 μM protein, pH 7.4.
From the text: (§2) The three mutants of McinOBP1, m1 (mutation of amino acid, valine to alanine at 58 position), m2 (mutation of amino acid, leucine to proline at 62 position) and m3 (mutation of amino acid, glutamic to alanine at 130 position), were developed using the kit of Quick-change lightning site-directed mutagenesis (Stratagene, La Jolla, CA, USA). The McinOBP1-wt/pGEM-T Easy construct was used as a template. The primers were designed manually and mutation sites are underlined as listed below.
as §1

For assay [4], the target named is T3, McinOBP1-m2 (Leu62 to proline) (Macrocentrus cingulum, UniProt X2D9T4, L62P).
T3 sequence (X2D9T4 21-140 L62P): T2 sequence (X2D9T4 21-140 V58A) with A38V, L42P
The assay is described as above. The following applies: 2 μM protein, pH 7.4.
From the text: as §2, §1

Assay [5] has as its target T4, McinOBP1-m3 (Glu130 to alanine) (Macrocentrus cingulum, UniProt X2D9T4, E130A).
T4 sequence (X2D9T4 21-140 E130A): T2 sequence (X2D9T4 21-140 V58A) with A38V, E110A
The description is as above. The following applies: 2 μM protein, pH 7.4.
From the text: as §2, §1

In assay [6] the target is T2, McinOBP1-m1 (Val58 to alanine). The assay is described as follows: Competitive fluorescence binding assay, displacement of 1-NPN.
From the text: as §2, §1

The target of assay [7] is T3, McinOBP1-m2 (Leu62 to proline). Described as above.
From the text: as §2, §1

In assay [8] the target is T4, McinOBP1-m3 (Glu130 to alanine). The description is as above.
From the text: as §2, §1

Where [9] appears, read: McinOBP1-wt, pH 7.4, 2 μM 1-NPN, read-out: IC50 (given as dash).
[10] abbreviates: McinOBP1-wt, pH 7.4, calculated from IC50 and K1-NPN, read-out: KD (calculated dissociation constant).
Setting [11] is: read-out: IC50 (ligand concentration displacing 50% of the fluorescence of the McinOBP1/1-NPN complex), McinOBP1-wt, pH 7.4, 2 μM 1-NPN.
The mark [12] stands for this setting: McinOBP1-wt, pH 7.4, 2 μM 1-NPN.

T1 sequence (X2D9T4 entry or part of it): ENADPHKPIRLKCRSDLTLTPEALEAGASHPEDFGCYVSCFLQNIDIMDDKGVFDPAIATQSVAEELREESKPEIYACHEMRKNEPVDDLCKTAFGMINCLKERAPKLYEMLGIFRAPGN

As to `CCCCCCCCCC=O` [Decanal], the “binding to McinOBP1-wt (in words)” value is “did not bind” at McinOBP1-wt [1] (McinOBP1-wt) and “no binding affinity” on McinOBP1-wt [1] (McinOBP1-wt, listed as decanal). The IC50 at McinOBP1-wt [1] (setting [9]) is greater than 50 µM.
As for `C=CC(=C)CC/C=C(\C)CCC=C(C)C` [β-Farnesene], the Kd on McinOBP1-wt [1] (setting [10]) was 24.8 µM. Also, on McinOBP1-wt [1] (setting [11]), the IC50 is 28.5 µM.
Regarding `CCC(C)CCCC(C)C` (centres unmarked) [2,6 dimethyl octane], the “binding to McinOBP1-wt (in words)” value on McinOBP1-wt [1] (McinOBP1-wt) is listed as “no binding affinity”; on McinOBP1-wt [1] (McinOBP1-wt, listed as 2, 6 dimethyl octane) it was “did not bind”. Further, the IC50 at McinOBP1-wt [1] (setting [9]) is greater than 50 µM.
With `CC/C=C\CCOC(C)=O` [cis-3-hexenyl acetate], at McinOBP1-wt [1] (setting [10]), the equilibrium dissociation constant (Kd) is 10.3 ± 0.71 µM.
Regarding `CCCCC/C=C/C=O` [Trans-2-Octenal], the IC50 at McinOBP1-wt [1] (setting [12]) was 15.7 µM. Further, on McinOBP1-wt [1] (setting [10]), the Kd was 13.6 µM.
For `CCCCCCCCC=O` [Nonanal], on McinOBP1-wt [1] (setting [12]), the IC50 stood at 19.6 µM. For the same molecule, the dissociation constant (Kd) on McinOBP1-wt [1] (setting [10]) was 17 µM.
Consider `c1ccc(Nc2cccc3ccccc23)cc1` [1-NPN, N-phenyl-1-naphthylamine], for which the equilibrium dissociation constant (Kd) was ~6.6 µM and 6.6 µM at McinOBP1-wt [2]; 14.6 ± 1.07 µM in assay [3]; 13.7 ± 0.71 µM in assay [4]; 6.53 ± 0.5 µM in assay [5].
Turning to `CC/C=C/CCOC(C)=O` [Trans-3-Hexen-1-ol-Acetate], the Kd on McinOBP1-wt [1] (setting [10]) is 20.7 µM. Further, the IC50 on McinOBP1-wt [1] (setting [11]) turned out to be 23.9 µM.
At McinOBP1-wt [1], `CC1=CCC2CC1C2(C)C` (stereo not drawn) [α-pinene] came in with an IC50 of 17.8 µM and a Kd of 15.5 µM.
In the case of `CCCCCCCCCCC=O` [Undecanal], the “binding to McinOBP1-wt (in words)” value on McinOBP1-wt [1] (McinOBP1-wt) was “did not bind; also recorded: no binding affinity”. In addition, on McinOBP1-wt [1] (setting [9]), the IC50 is greater than 50 µM.
Consider `CC(=O)/C=C/C1C(C)=CCCC1(C)C` (stereo not drawn) [α-Ionone], for which, at McinOBP1-wt [1], the IC50 worked out at 12.1 µM and the Kd was determined as 9.3 ± 0.38 µM.
On the same counts, the results for `C=CC(C)(O)CCC=C(C)C` (centres unmarked) [Linalool] are 18.6 µM and 16.2 µM.
On to Hexenal, for which, on McinOBP1-wt [1] (setting [10]), the Kd was 16.4 µM. In addition, the IC50 at McinOBP1-wt [1] (setting [11]) was determined as 18.9 µM.
In the same order, the values of `C=C(C)[C@H]1CC=C(C)CC1` [Limonene] are 18.3 µM and 21.1 µM.
In the case of `C=C1CC/C=C(\C)CC[C@@H]2[C@@H]1CC2(C)C` [Trans-Caryophelle, β- Caryophelle], the Kd at McinOBP1-wt [1] (setting [10]) is 6.53 µM; in assay [6] (McinOBP1-m1, read-out: KD), 66.2 µM; in assay [7] (McinOBP1-m2, read-out: KD) it was 42 µM; in assay [8] (McinOBP1-m3, listed as trans-caryophelle, read-out: KD), 41.4 ± 5.38 µM; in assay [8] (McinOBP1-m3, read-out: KD) it was 41.4 µM. Also, the IC50 on McinOBP1-wt [1] (setting [11]) was 7.51 µM; in assay [6] (McinOBP1-m1, read-out: IC50), 70.7 µM; in assay [7] (McinOBP1-m2, read-out: IC50), 45 µM; in assay [8] (McinOBP1-m3, read-out: IC50), 47.8 µM.
For the molecule `CCCCCC/C=C/C=O` [Trans-2-Nonenal], the IC50 at McinOBP1-wt [1] came to 3.4 µM; in assay [6] it was 13.6 µM; in assay [7] it was 50.6 µM; in assay [8] it was 76.7 µM. For the same molecule, the Kd is 2.96 µM at McinOBP1-wt [1]; 12.7 µM in assay [6]; 47.2 µM in assay [7]; 66.5 µM in assay [8] (KD, McinOBP1-m3).
At McinOBP1-wt [1], `O=Cc1ccccc1` [Benzaldehyde] had an IC50 of 17.9 µM and a Kd of 15.6 µM.
In the case of Farnsene, at McinOBP1-wt [1] (setting [10]), the Kd was 8.93 µM. The IC50 on McinOBP1-wt [1] (setting [11]) was found to be 10.3 µM.
On to `CC/C=C\CCO` [Cis-3-Hexen-1-ol], for which the IC50 at McinOBP1-wt [1] amounted to 4.61 µM; in assay [6] it was 23.6 µM; in assay [7], 26.1 µM; in assay [8] it was 29.5 µM. Also, the equilibrium dissociation constant (Kd) at McinOBP1-wt [1] is 4 µM; in assay [6], 22.1 µM; in assay [7] it was 24.3 µM; in assay [8] (KD, McinOBP1-m3), 25.6 µM.
Take `CC(=O)/C=C/C1=C(C)CCCC1(C)C` [β-Ionone]: on McinOBP1-wt [1], the IC50 stood at 10.3 µM and the equilibrium dissociation constant (Kd) was determined as 8.97 µM.
In the same order, the values of `C=C1CCC2CC1C2(C)C` (stereo not drawn) [β-Pinene] are 12.7 µM and 10.8 µM.
`CCCCCCC=O` [Heptanal] showed an IC50 on McinOBP1-wt [1] (setting [12]) of 35.5 µM. For the same molecule, the Kd on McinOBP1-wt [1] (setting [10]) was 30.9 µM.
In the same order, the values of `CCCCCc1ccco1` [2-Pentylfuran] are 19.1 µM and 16.6 µM.

Broadly, the Kd is the constant that tells how readily two partners part at equilibrium.
